# Source: patent US20050214738A1, “Conditional allele system” (priority 2003, published 2005)
# Experiments:
# KTF = biological target: T1, KTF (Homo sapiens, UniProt P42345+P62942, W2101F); assay: SeAP transcriptional switch assay, FRB mutant KTF; type: cell-based
# T1 construct: The minimal FRB domain comprises amino acids 2025-2114 of human mTor; expressed in transfected cells; host or cells: COS1 cells
# Description: Drug efficacy was determined in a three-plasmid transcriptional switch reporter assay. ˜106 COS1 cells were coelectroporated with 2 μg of the DNA binding construct pBJ5-Gal4-FKBP(3), 2 μg pBJ5-VP16 (or the relevant mutant FRB) and 2 μg of the Gal4-SeAP reporter. Electroporation details are available upon request. Cells were immediately aliquoted to 2 or 3×96 well plates with flat bottoms. After 24 hours incubation media was supplemented with a rapalog in triplicate and in serial two fold dilutions. Following 24 hours further incubation, cells with media were wrapped carefully in plastic wrap and heated to 65° C. for two hours to inactivate endogenous phosphatases. 50 μL of media was transferred to a black 96 well plate (Costar 3915) and supplemented with 1 mM methylumbelliferrylphosphate (Sigma, St. Louis, Mo.) in 1M diethanolamine (pH 10.0 with carbonate). After 16 hours incubation at 37° C. SeAP activity was measured by fluorescence with a Spectamax M2 fluorometer (Molecular Devices, Sunnyvale, Calif.) with transmission set at 355 nm and emmission set at 460 nm. Data was analysed with Softmax Pro (Molecular Devices), Microsoft Excel and Prism 3 (GraphPad Software).
# GSK-3βFRB* = biological target: T2, GSK-3βFRB* (Homo sapiens, UniProt P42345+P62942, K2095P/T2098L/W2101F); assay: GSK-3β immunoprecipitation-kinase assay on MEF lysates; type: biochemical, mouse; settings: treated GSK-3βFRB*/FRB* cells
# T2 construct: The minimal FRB domain comprises amino acids 2025-2114 of human mTor; endogenous in cells; host or cells: lysates of MEFs from GSK-3β^FRB* knock-in mice; immunoprecipitated with anti-GSK-3β
# [1] = test system: T3, GSK-3βFRB* (K2095P/T2098L/W2101F); assay: as above; type: biochemical, mouse; settings: treated versus untreated GSK-3βFRB*/FRB* MEFs
# T3 construct: The minimal FRB domain comprises amino acids 2025-2114 of human mTor; endogenous in cells; host or cells: lysates of MEFs from GSK-3β^FRB* knock-in mice; immunoprecipitated with anti-GSK-3β
# embryos = assay: Overt effects on mother and embryos after IP injection of pregnant mice; type: in vivo, mouse; settings: 200 mg/kg/day, 3 IP injections every 12 hours, E10.0 to E11.5
# Description: GSK-3β^+/FRB* mice were intercrossed and the date of vaginal plug observation was set as E0.5. At E9.5, the stage of embryonic development was confirmed by ultrasonography (Chang, C. P. et al. “Sonographic Staging of the Developmental Status of Mouse Embryos in Utero.” (2003) Published in Genesis 36, 7-11) and mice were weighed. Drug administration commenced at E10.0. […] 100 μL was immediately injected intraperitoneally (IP) to pregnant females with injections repeated twice more at 12 hour intervals to E11.5 when mice were sacrificed, and embryos and organs were dissected and frozen in […]. Tissues anterior to the embryonic forelimbs of individual embryos were used for preparation of protein extracts with the remainder used to determine the concentration of drug and for genotyping.
# T1 sequence (P42345 2025-2114 W2101F): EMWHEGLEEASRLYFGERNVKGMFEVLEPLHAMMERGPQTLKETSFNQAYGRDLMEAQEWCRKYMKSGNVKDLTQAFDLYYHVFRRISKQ
# T1 sequence (P62942 whole entry, the tested form may be a part): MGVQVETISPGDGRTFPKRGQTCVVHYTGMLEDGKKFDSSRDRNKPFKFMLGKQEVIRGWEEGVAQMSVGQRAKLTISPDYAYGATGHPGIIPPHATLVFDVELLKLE
# T3 sequence (P42345 2025-2114 K2095P/T2098L/W2101F): as the sequence (P42345 2025-2114 W2101F) above, with K71P, T74L counted along it
# T3 sequence (P62942 whole entry, further chain, the tested form may be a part): as the sequence (P62942 whole entry, the tested form may be a part) above
# T2 sequence (P42345 2025-2114 K2095P/T2098L/W2101F): as the sequence (P42345 2025-2114 W2101F) above, with K71P, T74L counted along it
# T2 sequence (P62942 whole entry, the tested form may be a part): as the sequence (P62942 whole entry, the tested form may be a part) above
substance,measurement,setting,value
C20-(R or S)-methallylrapamycin [C20-MaRap],binding to KTF,KTF,binds efficiently
same,EC50,KTF; single mutation Trp2101 to Phe,9 nM
same,kinase activity relative to wild-type cells,GSK-3βFRB*,approximately 60%
same,increase in GSK-3β kinase activity,[1],over 7 fold
same,overt effect on mother and embryos,embryos,Neither the mother nor the embryos were overtly affected
